In US20150159167A1, “Plants Tolerant to HPPD Inhibitor Herbicides” (Bayer CropScience AG, priority 2009, published 2015):
Where “and” joins values, the source holds several entries; their conditions need not be identical. Equal values may be shown once.

Legend:
[1] = test system: T1 tobacco plants containing FMP38e (Synechococcus sp. HPPD FMP38); test: Glasshouse trial, herbicidal damage after spray; type: in vivo, Nicotiana tabacum; details: 7 DAT, 100 gAI/ha spray
Protocol: T0 Tobacco plants containing either the gene from Arabidopsis coding for HPPD or the gene FMP38e from Synechococcus sp. coding for FMP38 HPPD, mentioned above (Example3), were transferred to the glasshouse (28/20° C.), to develop further and produce seeds. Those seeds were harvested and put on soil (ED73 mixed with sand and osmocote Pro) to germinate in the glasshouse (28/20° C.). Three to four weeks later, plantlets were transferred to single pots containing the soil mentioned above. Two weeks later, plants of a size 4-6 cm diameter were sprayed with either • tembotrione at 100 gAI/ha prepared from a WP20 (wettable powder 20%) formulation supplemented with ammonium sulfate and methyl ester raps oil, or • isoxaflutole at 100 gAI/ha prepared from a WP20 formulation supplemented with ammonium sulfate and methyl ester raps oil, or • “blind formulation” made from a WP20 formulation without active ingredient (AI) supplemented with ammonium sulfate and methyl ester raps oil, and were then transferred to a growth chamber with adequate light conditions (20000 Lux). […]

[2] = test system: T0 tobacco plants containing FMP38t; test: Response of T0 tobacco plants expressing the FMP38 HPPD to tembotrione; type: in vivo, Nicotiana tabacum; details: 100 g AI/ha, two weeks after the treatment
Source text: As an example, rooted plants containing the T-DNA PromCaMV35S-OTP-HIS6-FMP38t-TerCaMV35S, will be transferred to the greenhouse under standard growth conditions. Following a period of acclimation of two weeks, the T0 plants will be treated with a mixture containing 100 g tembotrione/ha prepared from a WP20 (wettable powder 20%) formulation supplemented with ammonium sulfate and methyl ester raps oil. Two weeks after the treatment, the symptoms due to the application of the herbicides will be evaluated. The plants are classified in four categories. The treated plants evaluated as “0” are looking like the untreated tobacco plants. The plants evaluated as “1” display temporarily light bleaching phenotype due to the application of the herbicides. The plants evaluated as “2” display permanent light to strong bleaching symptoms. Finally the plants evaluated as “3” are looking like wild type tobacco plants submitted to the same treatment.

[3] = test system: rice shoots transformed with FMP38e; test: Bleaching of rice shoots on MS/2 with tembotrione; type: in vivo; details: evaluation 2 weeks later
Protocol: Rice transformation was achieved using methods well known in the art. Briefly, the Agrobacterium tumefaciens mediated transformation of rice was performed using immature embryos, from the restorer line 6G4317. Briefly, panicles from donor plants were harvested 8-12 days after pollination. The lemma of the immature seed was removed. Seeds were thereafter sterilized using a NaOCl based solution and Tween. The seeds were preinduced with […]. Agrobacterium tumefaciens cells are then co-cultivated with the preinduced seeds in presence of acetosyringone for 4 days at 24° C. in the dark. Thereafter, coleoptile from embryos are removed and washed, then put on a media supplemented with phosphinothricin for 3 weeks at 28° C. under a photoperiod rhythm of 16 hours. Then the growing calli were cut off from the embryos, and transferred to fresh media containing triacillin, phosphinothricin, L-proline and copper (II) sulfate.
For each callusline and per Tembotrione concentration, 3 shoots, and randomly isolated from different callus pieces, were transferred to MS/2 with Tembotrione. As a general rule, transfer of the shoots from regeneration medium to MS/2 occurred 9 weeks after calli had been put on regeneration medium.
Cultures were incubated at 26.5° C. (16 hrs. photoperiod) and evaluation of symptoms occurred 2 weeks later.
New developing leaves of the shoots transferred have been scored on the basis of bleaching and categorized in 3 groups:
a) no bleaching b) intermediate bleaching c) complete bleaching
Within the category ‘intermediate bleaching’ a distinction has been made between shoots having new leaves showing only very little bleaching symptoms and thus tending to green leaves, and shoots with new leaves almost completely bleached.

## CS(=O)(=O)c1ccc(C(=O)C2C(=O)CCCC2=O)c(Cl)c1COCC(F)(F)F [Tembotrione, 2-[2-chloro-4-(methylsulfonyl)-3-[(2,2,2,-tri-fluoroethoxy)methyl]benzoyl]-1,3-cyclo-hexanedione]
[1]; line 34, one value per plant
  % injury: 30%
[1]; line 39, one value per plant
  % injury: 0% and 5%
[2]
  number of plants in category 0 (looking like the untreated tobacco plants): 1
  number of plants in category 1 (temporarily light bleaching phenotype): 1
  number of plants in category 3 (looking like wild type tobacco plants submitted to the same treatment): 14
[3]; 1 μM
  No of shoots completely bleached: 0
  No of shoots with intermediate bleaching: 4
  No of shoots without bleaching: 38
[3]; 5 μM
  No of shoots with intermediate bleaching: 35
  No of shoots without bleaching: 3
